The record followed here is ChEMBL document CHEMBL1154658, “Novel macrocyclic inhibitors of hepatitis C NS3/4A protease featuring a 2-amino-1,3-thiazole as a P4 carbamate replacement” (J Med Chem, 2009).

Data set [1] is described as follows: Plasma clearance in Beagle dog at 2 mg/kg, iv. It counts as ADME, organism-based, Canis lupus familiaris. Details: dose 2 mg/kg, route intravenous.
Data set [2] in a line: AUC in Sprague-Dawley rat at 5 mg/kg, po. It counts as ADME, organism-based. The arrangement: dose 5 mg/kg, route oral. The note with it: plasma.
Data set [3] can be described thus: AUC in Sprague-Dawley rat at 10 mg/kg, po. Format: ADME, organism-based. Details: dose 10 mg/kg, route oral. The settings on record: plasma.
Data set [4] in a line: AUC in Sprague-Dawley rat at 20 mg/kg, po. Details: dose 20 mg/kg, route oral. The settings on record: plasma. Format: ADME, organism-based.
The nature of data set [5]: AUC in Sprague-Dawley rat at 30 mg/kg, po. Format: ADME, organism-based. The arrangement: dose 30 mg/kg, route oral. The settings on record: plasma.
A short description of data set [6]: AUC in Beagle dog at 2 mg/kg, iv. The settings on record: plasma. It counts as ADME, organism-based, Canis lupus familiaris. Details: dose 2 mg/kg, route intravenous.
The nature of data set [7]: AUC in Beagle dog at 5 mg/kg, po. Details: dose 5 mg/kg, route oral. Format: ADME, organism-based, Canis lupus familiaris. The settings on record: plasma.
Data set [8] in a line: AUC in Beagle dog at 10 mg/kg, po. The settings on record: plasma. It counts as ADME, organism-based, Canis lupus familiaris. Details: dose 10 mg/kg, route oral.
Data set [9] is described as follows: Cmax in Sprague-Dawley rat at 5 mg/kg, po. Format: ADME, organism-based. The arrangement: dose 5 mg/kg, route oral. The settings on record: in vivo.
Data set [10] can be described thus: Cmax in Sprague-Dawley rat at 10 mg/kg, po. Format: ADME, organism-based. The arrangement: dose 10 mg/kg, route oral. The note with it: in vivo.
Data set [11] is described as follows: Cmax in Sprague-Dawley rat at 20 mg/kg, po. Format: ADME, organism-based. The arrangement: dose 20 mg/kg, route oral. The note with it: in vivo.
A short description of data set [12]: Cmax in Sprague-Dawley rat at 30 mg/kg, po. It counts as ADME, organism-based. Details: dose 30 mg/kg, route oral. The settings on record: in vivo.
A short description of data set [13]: Cmax in Beagle dog at 2 mg/kg, iv. It counts as ADME, organism-based, Canis lupus familiaris. The arrangement: dose 2 mg/kg, route intravenous. The settings on record: in vivo.
Data set [14] is described as follows: Cmax in Beagle dog at 5 mg/kg, po. It counts as ADME, organism-based, Canis lupus familiaris. Details: dose 5 mg/kg, route oral. The settings on record: in vivo.
The nature of data set [15]: Cmax in Beagle dog at 10 mg/kg, po. The settings on record: in vivo. Details: dose 10 mg/kg, route oral. Format: ADME, organism-based, Canis lupus familiaris.
The nature of data set [16]: Oral bioavailability in Sprague-Dawley rat at 5 mg/kg. It counts as ADME, organism-based. The note with it: in vivo.
Data set [17] in a line: Bioavailability in Beagle dog at 2 mg/kg, iv. Format: ADME, organism-based, Canis lupus familiaris. The note with it: in vivo.
Data set [18] is described as follows: Drug level in Sprague-Dawley rat liver at 5 mg/kg, po after 24 hrs. It counts as ADME, organism-based. The arrangement: dose 5 mg/kg, route oral. The note with it: read-out: Drug uptake.
The nature of data set [19]: Drug level in Sprague-Dawley rat liver at 20 mg/kg, po after 24 hrs. The note with it: read-out: Drug uptake. It counts as ADME, organism-based. Details: dose 20 mg/kg, route oral.
A short description of data set [20]: Drug level in Sprague-Dawley rat liver at 30 mg/kg, po after 24 hrs. The note with it: read-out: Drug uptake. It counts as ADME, organism-based. Details: dose 30 mg/kg, route oral.

For orientation: clearance means the volume of plasma or blood freed of the substance per unit of time. A higher clearance goes with efficient removal. By AUC is commonly meant concentration integrated over time. A higher AUC goes with high exposure. The term Cmax denotes the peak of the concentration-time curve. Usually bioavailability stands for the share of a dose that reaches the circulation, judged against a reference dose that is usually intravenous. `C=C[C@@H]1C[C@]1(NC(=O)[C@@H]1C[C@@H]2CN1C(=O)[C@H]([C@@H](C)CC)Nc1nc(cs1)CCC/C=C/c1cccc3c1CN(C3)C(=O)O2)C(=O)[N-]S(=O)(=O)C1CC1.[K+]` displayed a clearance in data set [1] of 2.28 L/h/kg. The AUC in [2] was determined as 1700 nM·h; in data set [3] it was 2500 nM·h; in data set [4], 13300 nM·h; in data set [5], 21000 nM·h; in data set [6], 200 nM·h; in data set [7] it was 500 nM·h. The compound also displayed an AUC in data set [8] of 10000 nM·h. Further, the Cmax in [9] came to 0.5 µM; in [10] it was 1.4 µM; in data set [11], 5.9 µM; in data set [12], 8 µM; in [13] it was 0.06 µM; in [14], 1.16 µM. Further, the Cmax in [15] is 4 µM. Also, the bioavailability in data set [16] is 26%; in data set [17], 17%. Besides, the concentration at 24 h was 0.01 µM in data set [18], 0.04 µM in data set [19] and 0.06 µM in data set [20].
